Where “and” joins values, the source holds several entries; their conditions need not be identical. Equal values may be shown once.
What was measured:
T. cruzi CYP51 = conditions: 2-fold molar excess over the enzyme ref 61; cited from earlier work
human CYP51 = conditions: cited from earlier work
A. castellanii CYP51 [1] = molecular target: T1, A. castellanii CYP51 (Acanthamoeba castellanii, UniProt L8GJB3, V2A); conditions: full-length enzyme, type I spectral response
T1 sequence (L8GJB3 1-486 V2A): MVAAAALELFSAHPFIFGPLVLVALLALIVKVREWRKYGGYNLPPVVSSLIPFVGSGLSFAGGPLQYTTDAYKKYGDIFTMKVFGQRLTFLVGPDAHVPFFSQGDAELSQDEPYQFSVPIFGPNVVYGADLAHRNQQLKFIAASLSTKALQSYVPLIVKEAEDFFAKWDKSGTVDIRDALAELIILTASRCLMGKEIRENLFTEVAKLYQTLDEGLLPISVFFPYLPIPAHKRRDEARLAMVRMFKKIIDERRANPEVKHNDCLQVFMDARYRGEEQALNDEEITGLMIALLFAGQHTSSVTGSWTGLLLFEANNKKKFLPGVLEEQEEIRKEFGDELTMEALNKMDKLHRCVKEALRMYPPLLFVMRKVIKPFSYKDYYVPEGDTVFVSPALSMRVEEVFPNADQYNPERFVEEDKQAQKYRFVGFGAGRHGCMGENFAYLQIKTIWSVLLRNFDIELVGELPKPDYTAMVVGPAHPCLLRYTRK
T1 sequence (P00388 2-678 partner): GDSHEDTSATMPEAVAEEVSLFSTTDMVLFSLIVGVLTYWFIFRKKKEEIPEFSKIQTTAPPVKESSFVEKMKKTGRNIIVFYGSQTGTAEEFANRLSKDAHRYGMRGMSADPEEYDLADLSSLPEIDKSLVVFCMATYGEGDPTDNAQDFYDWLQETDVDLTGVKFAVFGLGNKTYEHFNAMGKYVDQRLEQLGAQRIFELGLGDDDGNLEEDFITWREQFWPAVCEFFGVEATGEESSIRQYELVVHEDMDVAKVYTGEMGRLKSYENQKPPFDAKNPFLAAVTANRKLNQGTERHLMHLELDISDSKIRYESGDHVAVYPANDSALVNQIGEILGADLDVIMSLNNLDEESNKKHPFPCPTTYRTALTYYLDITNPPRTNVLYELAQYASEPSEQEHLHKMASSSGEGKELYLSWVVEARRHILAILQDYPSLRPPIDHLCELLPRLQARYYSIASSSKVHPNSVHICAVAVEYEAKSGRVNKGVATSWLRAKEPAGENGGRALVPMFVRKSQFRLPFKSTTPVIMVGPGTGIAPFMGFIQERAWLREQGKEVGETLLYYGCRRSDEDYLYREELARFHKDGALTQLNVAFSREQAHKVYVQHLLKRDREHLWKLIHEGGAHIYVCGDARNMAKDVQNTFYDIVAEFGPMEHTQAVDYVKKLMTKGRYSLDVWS

A. castellanii CYP51 [2] = molecular target: T1, A. castellanii CYP51; conditions: obtusifoliol over lanosterol

| Structure (SMILES) | inhibition of T. cruzi CYP51 (T. cruzi CYP51) | binding to human CYP51 (human CYP51) | low- to high-spin transition in the heme iron (A. castellanii CYP51 [1]) | fold higher catalytic efficiency than for lanosterol (substrate preference) (A. castellanii CYP51 [2]) |
| --- | --- | --- | --- | --- |
| O[C@@](Cn1cnnn1)(c1ccc(F)cc1F)C(F)(F)c1ccc(-c2ccc(OCC(F)(F)F)cc2)cn1 [VT1161, (R)-2-(2,4-difluorophenyl)-1,1-difluoro-3-(lH-tetrazol-1-yl)-1-(5-(4-(2,2,2-trifluoroethoxy)phenyl)pyridin-2-yl)propan-2-ol] | ~ 95% | does not bind | – | – |
| CC(C)=CCC[C@@H](C)[C@H]1CC[C@@]2(C)C3=C(CC[C@]12C)[C@@]1(C)CC[C@H](O)C(C)(C)[C@@H]1CC3 [lanosterol] | – | – | ~15% | – |
| C=C(CC[C@@H](C)[C@H]1CC[C@@]2(C)C3=C(CC[C@]12C)[C@@]1(C)CC[C@H](O)[C@@H](C)[C@@H]1CC3)C(C)C [obtusifoliol] | – | – | ~ 60% | ~ 100 fold and 100 fold |

From paper PMC11089504 (Journal of medicinal chemistry, 2024)
